# Assay results taken from PMC10587126, “Molecular hybridization strategy for tuning bioactive peptide function” (Communications Biology, 2023).
# Where two headings read alike, the source gives them in different places. No end group written: not given here.
# Key:
# human erythrocytes [1] = assay: Hemolytic activity; type: cell-based; conditions: 0.1–100 μmol L^−1 in PBS, room temperature, 1 h, absorbance 405 nm
# Description: Assays against freshly collected human erythrocytes were performed following protocols described by Pedron et al.[54]. Briefly, peptide aliquots at concentrations ranging from 0.1 to 100 μmol L^−1 were incubated with a suspension of erythrocytes at room temperature for 1 h. The samples were then centrifuged, and the absorbance of the supernatant was measured at 405 nm. […] The surfactant SDS and PBS buffer were used as positive[81],[82] and negative controls, respectively. Sodium heparin was used as an anticoagulant when collecting human blood. Three biological repeats were performed. All experiments were performed in accordance with the protocol CEUA/IB #I-1345/15 approved by the Instituto Butantan.
# [2] = Skin tissue histopathological analysis (H&E); type: in vivo, mouse; conditions: H&E staining, tissue collected 24 h after infection and treatment, three mice per condition
# Description: The fur on the back of the mice was removed and the mice were infected and treated as described in the Skin abscess infection mouse model section. After 24 h, mice were euthanized for tissue collection. Samples were pre-fixed in individual cassettes, then transferred to a container filled with 70% ethanol (EtOH) for slicing and staining. Next, the samples were placed on glass slides for microscopy analysis. We collected the tissue from three mice per condition analyzed.
# [3] = Mouse body weight in the skin abscess infection model; type: in vivo
# [4] = Resistance to proteolytic degradation in fetal bovine serum; type: in vitro ADME; conditions: 25% fetal bovine serum in water, 37 °C
# Description: Stability assays were performed following the protocol described by Torres et al.[67]. Briefly, a peptide solution was added to GIBCO fetal bovine serum diluted to 25% in water and kept at 37 °C. The degradation kinetics were monitored by liquid chromatography and the percentage of peptide remaining in each case was calculated by integrating the peptide peak area. These experiments were performed as three independent replicates, and aliquots were taken at 0, 0.5, 1, 2, 4, and 6 h.
# human erythrocytes [5] = conditions: at 100 µmol L^−1; cited from earlier work
# From the text: These observations are consistent with our results for PV, which incorporated protonectin’s hydrophobic face (Fig. 2) displaying increased antimicrobial activity than VP (Fig. 3). Additi ...
# [6] = day 0 = 100, Day 1, replicate 1
# [7] = day 0 = 100, Day 1, replicate 2
# [8] = day 0 = 100, Day 1, replicate 3
# [9] = day 0 = 100, Day 2, replicate 1
# [10] = day 0 = 100, Day 2, replicate 2
# [11] = day 0 = 100, Day 2, replicate 3
# [12] = day 0 = 100, Day 3, replicate 1
# [13] = day 0 = 100, Day 3, replicate 2
# [14] = day 0 = 100, Day 3, replicate 3
# [15] = day 0 = 100, Day 4, replicate 1
# [16] = day 0 = 100, Day 4, replicate 2
# [17] = day 0 = 100, Day 4, replicate 3
# [18] = LC peak area, time 0 = 100, 0.5 h, replicate 1
# [19] = LC peak area, time 0 = 100, 0.5 h, replicate 2
# [20] = LC peak area, time 0 = 100, 0.5 h, replicate 3
# [21] = LC peak area, time 0 = 100, 1 h, replicate 1
# [22] = LC peak area, time 0 = 100, 1 h, replicate 2
# [23] = LC peak area, time 0 = 100, 1 h, replicate 3
# [24] = LC peak area, time 0 = 100, 2 h, replicate 1
# [25] = LC peak area, time 0 = 100, 2 h, replicate 2
# [26] = LC peak area, time 0 = 100, 2 h, replicate 3
# [27] = LC peak area, time 0 = 100, 4 h, replicate 1
# [28] = LC peak area, time 0 = 100, 4 h, replicate 2
# [29] = LC peak area, time 0 = 100, 6 h, replicate 1
# [30] = LC peak area, time 0 = 100, 6 h, replicate 2
# [31] = LC peak area, time 0 = 100, 6 h, replicate 3
# [32] = LC peak area, time 0 = 100, 4 h, replicate 3
Substance,Hemolytic activity (concentration of peptide needed to kill 10% of red blood cells) (human erythrocytes [1]),Histopathological effect on skin tissue (in words) [2],"Mouse body weight, normalized to the weight at the beginning of the experiment [3, 6]","Mouse body weight, normalized to the weight at the beginning of the experiment [3, 7]","Mouse body weight, normalized to the weight at the beginning of the experiment [3, 8]","Mouse body weight, normalized to the weight at the beginning of the experiment [3, 9]","Mouse body weight, normalized to the weight at the beginning of the experiment [3, 10]","Mouse body weight, normalized to the weight at the beginning of the experiment [3, 11]","Mouse body weight, normalized to the weight at the beginning of the experiment [3, 12]","Mouse body weight, normalized to the weight at the beginning of the experiment [3, 13]","Mouse body weight, normalized to the weight at the beginning of the experiment [3, 14]","Mouse body weight, normalized to the weight at the beginning of the experiment [3, 15]","Peptide remaining [4, 20]","Peptide remaining [4, 23]","Peptide remaining [4, 26]","Peptide remaining [4, 27]","Peptide remaining [4, 28]","Peptide remaining [4, 29]","Peptide remaining [4, 30]","Peptide remaining [4, 31]",further results
FLGAIGNVLKSIL-NH2 [TV],0.2 µmol/L,Neither TV nor VmCT1 changed the tissue’s morphology,90,90,100,90,95,100,90,95,105,85,0,0,0,0,0,0,0,0,"Mouse body weight, normalized to the weight at the beginning of the experiment [3, 16]: 95; Mouse body weight, normalized to the weight at the beginning of the experiment [3, 17]: 100; Peptide remaining after 30 min ([4]; LC peak area vs time 0, 30 min, three replicates): totally degraded; Peptide remaining [4, 18]: 0; Peptide remaining [4, 19]: 0; Peptide remaining [4, 21]: 0; Peptide remaining [4, 22]: 0; Peptide remaining [4, 24]: 0; Peptide remaining [4, 25]: 0; remaining at 4 h ([4]; fetal bovine serum, 25% in water, LC peak area, time 0 = 100, 4 h, replicate 3, read-out: Peptide remaining): 0%"
"FLGALWNVAKSVF-NH2 [VmCT1, reference compound]",,Neither TV nor VmCT1 changed the tissue’s morphology,90,100,105,90,95,100,95,100,105,90,26.5,7.4,11.9,0.0,0.0,0.0,0.0,0.0,"Mouse body weight, normalized to the weight at the beginning of the experiment [3, 16]: 100; Mouse body weight, normalized to the weight at the beginning of the experiment [3, 17]: 100; Peptide remaining [4, 18]: 28.5; Peptide remaining [4, 19]: 24.4; Peptide remaining [4, 21]: 6.3; Peptide remaining [4, 22]: 8.5; Peptide remaining [4, 24]: 10.5; Peptide remaining [4, 25]: 13.9; Peptide remaining [4, 32]: 0.0"
"SLLSLIRKLIT-NH2 [Decoralin, reference compound]",1.6 µmol/L,,,,,,,,,,,,0.0,0.0,0.0,0.0,0.0,0.0,0.0,0.0,"Hemolytic activity (in words) (human erythrocytes [5]): low hemolytic activity; Peptide remaining [4, 32]: 0.0; remaining at 0.5 h ([4]; fetal bovine serum, 25% in water, LC peak area, time 0 = 100, 0.5 h, replicate 1, read-out: Peptide remaining): 71%; remaining at 0.5 h ([4]; fetal bovine serum, 25% in water, LC peak area, time 0 = 100, 0.5 h, replicate 2, read-out: Peptide remaining): 65%; remaining at 1 h ([4]; fetal bovine serum, 25% in water, LC peak area, time 0 = 100, 1 h, replicate 1, read-out: Peptide remaining): 26%; remaining at 1 h ([4]; fetal bovine serum, 25% in water, LC peak area, time 0 = 100, 1 h, replicate 2, read-out: Peptide remaining): 23%; remaining at 2 h ([4]; fetal bovine serum, 25% in water, LC peak area, time 0 = 100, 2 h, replicate 1, read-out: Peptide remaining): 29%; remaining at 2 h ([4]; fetal bovine serum, 25% in water, LC peak area, time 0 = 100, 2 h, replicate 2, read-out: Peptide remaining): 23%"
